This assay deals with ROR1 (Homo sapiens, UniProt Q01973). Nature of the assay: Western blot of pROR1 in PaCa-2 cells ([…] h), confirmed by human phospho-RTK array. Type of assay: cell-based.
ROR1, sequence (Q01973 30-937): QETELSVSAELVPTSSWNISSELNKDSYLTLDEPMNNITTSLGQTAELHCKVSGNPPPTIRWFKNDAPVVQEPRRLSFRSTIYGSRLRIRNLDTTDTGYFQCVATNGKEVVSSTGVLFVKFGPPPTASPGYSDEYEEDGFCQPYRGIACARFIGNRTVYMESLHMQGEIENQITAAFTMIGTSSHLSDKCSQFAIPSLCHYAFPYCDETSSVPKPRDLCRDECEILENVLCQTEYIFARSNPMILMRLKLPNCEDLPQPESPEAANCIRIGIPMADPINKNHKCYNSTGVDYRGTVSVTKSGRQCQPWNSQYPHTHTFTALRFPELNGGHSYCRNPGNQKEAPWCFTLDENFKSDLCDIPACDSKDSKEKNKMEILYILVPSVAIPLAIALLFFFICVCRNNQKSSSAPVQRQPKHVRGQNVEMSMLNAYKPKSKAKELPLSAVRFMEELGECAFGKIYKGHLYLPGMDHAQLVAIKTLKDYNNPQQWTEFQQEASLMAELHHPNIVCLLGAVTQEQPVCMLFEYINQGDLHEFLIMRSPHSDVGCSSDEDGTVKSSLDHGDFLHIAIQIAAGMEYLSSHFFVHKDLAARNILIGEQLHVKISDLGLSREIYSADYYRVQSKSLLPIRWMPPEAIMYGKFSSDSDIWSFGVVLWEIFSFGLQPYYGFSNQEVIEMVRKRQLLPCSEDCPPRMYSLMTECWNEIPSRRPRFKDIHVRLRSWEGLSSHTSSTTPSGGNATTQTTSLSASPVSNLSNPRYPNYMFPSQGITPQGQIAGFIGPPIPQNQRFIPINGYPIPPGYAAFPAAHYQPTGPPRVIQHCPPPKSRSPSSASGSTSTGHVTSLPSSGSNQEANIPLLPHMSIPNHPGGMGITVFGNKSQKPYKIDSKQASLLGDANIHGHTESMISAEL

What is called IC50 is the concentration at which inhibition is half-maximal. Take KAN0439834: the IC50 is < 0.1 µM.

For the origin of these results see publication PMC5983484, “A receptor tyrosine kinase ROR1 inhibitor (KAN0439834) induced significant apoptosis of pancreatic cells which was enhanced by erlotinib and ibrutinib” (PLoS ONE, 2018).
